One series concerns TNF-α production. Put plainly: Inhibition of TNF-α production following LPS-stimulation of human PBMC and human whole blood. Type of series: cell-based. The note with it: in vitro studies; compared with thalidomide. On the procedure: In a specific embodiment, the pharmacological properties of 3-(3,4-dimethoxy-phenyl)-3-(1-oxo-1,3-dihydro-isoindol-2-yl)-propionamide are characterized in in vitro studies. Studies examine the effects of the compound on the production of various cytokines. Inhibition of TNF-α production following LPS-stimulation of human PBMC and human whole blood by the compound is investigated in vitro. The IC50's of the compound for inhibiting production of TNF-α are measured. […] The pharmacological effects of 3-(3,4-dimethoxy-phenyl)-3-(1-oxo-1,3-dihydro-isoindol-2-yl)-propionamide may derive from its action as an inhibitor of the generation of inflammatory cytokines.

Series [1] can be described thus: Cardiovascular and respiratory function in anesthetized dogs. Type of series: in vivo. The note with it: anesthetized Beagle dogs; ascending doses 400, 800 and 1,200 mg/kg/day by infusion through the jugular vein. On the procedure: The effects of 3-(3,4-dimethoxy-phenyl)-3-(1-oxo-1,3-dihydro-isoindol-2-yl)-propionamide on cardiovascular and respiratory function are investigated in anesthetized dogs. Two groups of Beagle dogs (2/sex/group) are used. One group receives three doses of vehicle only and the other receives three ascending doses of 3-(3,4-dimethoxy-phenyl)-3-(1-oxo-1,3-dihydro-isoindol-2-yl)-propionamide (400, 800, and 1,200 mg/kg/day). In all cases, doses of 3-(3,4-dimethoxy-phenyl)-3-(1-oxo-1,3-dihydro-isoindol-2-yl)-propionamide or vehicle are successively administered via infusion through the jugular vein separated by intervals of at least 30 minutes.

Series [2] can be described thus: Clinical study in pain patients with upper extremity CRPS. Type of series: in vivo, human. The conditions noted are these: 1,200 mg as a continuous oral daily dose. On the procedure: Selective cytokine inhibitory drugs of the invention such as 3-(3,4-dimethoxy-phenyl)-3-(1-oxo-1,3-dihydro-isoindol-2-yl)-propionamide are administered in an amount of 400 to 1,200 mg per day to patients with pain syndromes for three to six months. A baseline evaluation is performed for the effect of the drug treatment on pain intensity, impact of pain on activities of daily living, and consumption of other pain medications.
In a specific embodiment, clinical studies are performed in pain patients who have upper extremity CRPS that has not responded to conventional physical therapy and has been present for at least one year. In the early course of their diseases, patients have clear evidence of autonomic dysfunction with formal autonomic testing (Quantitative sudomotor axon reflex test (QSART), resting sweat output, and thermography). If this is unavailable, documentation of clinical signs indicates autonomic dysfunction (changes in hydration, temperature, skin, nail or hair growth) along with symptoms of allodynia and swelling. […] Responses are assessed using standard pain scales, e.g., Numeric Pain Scale Assessment (VAS) for pain, quality of life using the McGill Index and objective signs in clinical examination such as a visible reduction of swelling, sweating, discolorations in skin color, temperature changes, changes in skin, hair and nail growth, and fine motor movements. […]

The conditions of series [3]: 8 to 10 mg/kg i.p.; acute pain assays; cited from earlier work.

Results on two compounds are retold here after patent US20040087558A1, “Methods of using and compositions comprising selective cytokine inhibitory drugs for treatment, modification and management of pain” (priority 2002, published 2004).

SMILES strings stand for the structures.

As to `COc1ccc(C(CC(N)=O)N2Cc3ccccc3C2=O)cc1OC` (stereo not shown) [3-(3,4-dimethoxy-phenyl)-3-(1-oxo-1,3-dihydro-isoindol-2-yl)-propionamide], the “pharmacological activity profile, potency relative to thalidomide” value in the series on TNF-α production is “five to fifty”. Also, the “cardiovascular and respiratory changes compared to the vehicle control group” value in series [1] was “minimal at all doses”. Further, in series [2], the tolerability entry was “well-tolerated”.

On to `CN1CC[C@]23c4c5ccc(O)c4O[C@H]2[C@@H](O)C=C[C@H]3[C@H]1C5` [morphine], for which the anti-nociceptive response entry in series [3] is given as “near-maximal anti-nociceptive response”.
